Measured values from US20250064990A1, “METHODS OF SCREENING FOR VMAT2 INHIBITORS” (Neurocrine Biosciences, Inc., priority 2021, published 2025).
In brackets after ≈: the same amount, converted by molar mass. Read-outs that look alike come from different tables or passages of the source.

Target: VMAT2 (Homo sapiens, UniProt Q05940)
Assay: VMAT2 target occupancy of single oral doses of NBI-750142 in healthy adult male subjects, [^18F]AV-133 PET
Type: in vivo
Parameters: from tissue; host or cells: brain (caudate, putamen, midbrain) of living healthy adult male subjects
Details: for [^18F]AV-133 BPND T2 / NBI-750142 T2 Occ: T2 (18 h post dose); for NBI-750142 T1 Occ / [^18F]AV-133 BPND T1: T1 ([…] post dose); for EC50: read-out: EC50 (NBI-750142 plasma concentration vs VMAT2 striatal occupancy) (converted)
Protocol: This study was conducted to evaluate the brain penetration and target engagement of VMAT2 after single oral doses of NBI-750142 in healthy subjects. This PET study assessed the engagement of NBI-750142 with VMAT2 in vivo at two time-points after dosing. A sequential-cohort design allowed for the safety, target-occupancy, and available pharmacokinetic (PK) data from each prior cohort to be evaluated before selection of the dose level for the next cohort. A range of NBI-750142 doses (max. 200 mg) were studied to explore the relationship between NBI-750142 plasma concentrations and engagement of VMAT2 in selected brain regions.
This was a Phase 1 single-center, open-label, single-dose, target occupancy study of NBI-750142 in up to 12 healthy male subjects using [^18F]AV-133 PET imaging. […] A total of 12 subjects completed the study. Subjects enrolled in the study were required to report to the clinical research site for 4 separate occasions, detailed below.
Two subjects were initially enrolled in each dose cohort. Each subject received one brain structural magnetic resonance imaging (MRI) scan during screening and up to 3 [^18F]AV-133 PET scans (1 baseline and up to 2 follow-up scans after receiving a single dose of NBI-750142). Subjects enrolled in the first cohort received a single dose of 100 mg of NBI-750142 orally on Day 1. PET scans occurred on Day 1 at approximately 1.5 hours post NBI-750142 dose and on Day 2 at approximately 18 hours post NBI-750142 dose. Subjects were then discharged from the study center after all Day 3 procedures and assessments were completed.
Subjects were administered a single dose of [^18F]AV-133 intravenously over 3 minutes using an infusion pump (approximately 3.33 mL per minute) through a venous catheter followed by a 10 mL saline flush. Dynamic PET imaging of the brain was acquired over 120 min following radiotracer injection on a Siemens Biograph 6 PET/CT camera according to the following protocol: • CT scan of the head • [^18F]AV-133 injection (T=0 min) • Emission scan: 6×30 sec, 4×1 min, 4×2 min, 21×5 min (0-120 min)
Reconstructed PET imaging data volumes were transferred to the image processing PMOD software package (PMOD Technologies, Zurich, Switzerland) where the images were motion and decay corrected, realigned onto the subject MRI and subsequently normalized into the standard MNI (Montreal Neurological Institute) space where volumes of interest (VOIs) were defined from a template (see e.g., Hammers et al, Adult brain maximum probability map (“Hammersmith atlas”; n30r83) in MNI space. 2008). The subject MRI was segmented into grey matter, white matter, and CSF maps. Average activity concentration (kBq/cc) within each VOI, constrained to grey matter voxels for cortical regions, were determined and time activity curves (TACs) were generated. TACs were extracted from the following VOIs: caudate and putamen (striatum), midbrain, cerebellar and occipital cortices. TACs and were expressed in standard uptake value (SUV) units (g/mL) by normalizing with the weight of the subject and the injected dose. The occipital cortex was used as a reference region to normalize activity in target regions to generate SUVr images. For visualization, standard uptake value ratio (SUVr) images were computed between 60-120 min. Non-displaceable binding potential (BPND), the primary outcome measure, was estimated with noninvasive Logan graphical analysis (NI-LGA, t*=20 min) in caudate, putamen and midbrain using the occipital cortex as the reference region. Percent measured occupancy (OM) of NBI-750142 (drug) by region was computed according to the Equation 3-1 at each of the post-dose timepoints, T1 (1.5 h post dose) and T2 (18 h post dose).
Post-hoc exploratory analysis applied an Upregulation model (Equation 3-3), in order to account for the apparent ‘negative occupancy’ values observed at T2 (BPND values at T2 were unexpectedly higher than corresponding BPND values at baseline). […]

[1] = Cohort 4, 60 mg, Subject 1, Midbrain
[2] = Cohort 4, 60 mg, Subject 1, Putamen
[3] = Cohort 4, 60 mg, Subject 2, Caudate
[4] = Cohort 4, 60 mg, Subject 2, Midbrain
[5] = Cohort 4, 60 mg, Subject 2, Putamen
[6] = Cohort 5A, 10 mg, Subject 1, Caudate (2nd line so labelled)
[7] = Cohort 5A, 10 mg, Subject 1, Caudate
[8] = Cohort 5A, 10 mg, Subject 1, Midbrain
[9] = Cohort 5A, 10 mg, Subject 2, Caudate (2nd line so labelled)
[10] = Cohort 5A, 10 mg, Subject 2, Caudate
[11] = Cohort 5A, 10 mg, Subject 2, Midbrain
[12] = Cohort 5B, 10 mg, Subject 3, Caudate
[13] = Cohort 5B, 10 mg, Subject 3, Midbrain
[14] = Cohort 5B, 10 mg, Subject 3, Putamen
[15] = Cohort 5B, 10 mg, Subject 4, Caudate
[16] = Cohort 5B, 10 mg, Subject 4, Midbrain
[17] = Cohort 5B, 10 mg, Subject 4, Putamen
[18] = Upregulation model, post hoc exploratory, both T1 and T2 data
[19] = average of caudate and putamen, 100 mg

Chain of VMAT2 (Q05940 whole entry): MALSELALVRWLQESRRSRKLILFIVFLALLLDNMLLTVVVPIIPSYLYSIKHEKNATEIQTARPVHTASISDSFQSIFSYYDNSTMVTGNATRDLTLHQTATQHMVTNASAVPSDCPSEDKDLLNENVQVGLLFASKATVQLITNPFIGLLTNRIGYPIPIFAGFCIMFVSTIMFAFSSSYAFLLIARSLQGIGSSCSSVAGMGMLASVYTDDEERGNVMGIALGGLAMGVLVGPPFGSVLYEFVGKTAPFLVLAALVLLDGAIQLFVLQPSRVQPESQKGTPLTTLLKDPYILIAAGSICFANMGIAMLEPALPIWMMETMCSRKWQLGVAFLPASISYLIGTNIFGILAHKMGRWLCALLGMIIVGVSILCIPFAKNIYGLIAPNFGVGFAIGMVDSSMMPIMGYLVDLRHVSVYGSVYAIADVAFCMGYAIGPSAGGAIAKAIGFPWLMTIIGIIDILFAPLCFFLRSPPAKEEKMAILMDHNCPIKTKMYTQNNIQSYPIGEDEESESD

For `COc1cc2c(cc1OC)[C@H]1CN(C)[C@H](CC(C)(C)C)CN1CC2` [NBI-750142], the “[^18F]AV-133 BPND T2” value (Cohort 4, 60 mg, Subject 1, Caudate) was 1.69, the “NBI-750142 T1 Occ” value [1] was 55% and the “[^18F]AV-133 BPND T1” value [1] was 0.20. For the same compound, the “NBI-750142 T2 Occ” value [1] was −1%, the “[^18F]AV-133 BPND T2” value [1] was 0.44 and the “NBI-750142 T1 Occ” value [2] was 39%. For the same compound, the “[^18F]AV-133 BPND T1” value [2] was 1.10, the “NBI-750142 T2 Occ” value [2] was −12% and the “[^18F]AV-133 BPND T2” value [2] was 2.01. The “NBI-750142 T1 Occ” value [3] was 11%, the “[^18F]AV-133 BPND T1” value [3] was 1.26 and the “NBI-750142 T2 Occ” value [3] was −13%. The “[^18F]AV-133 BPND T2” value [3] was 1.61, the “NBI-750142 T1 Occ” value [4] was 27% and the “[^18F]AV-133 BPND T1” value [4] was 0.28. For the same compound, the “NBI-750142 T2 Occ” value [4] was −12%, the “[^18F]AV-133 BPND T2” value [4] was 0.42 and the “NBI-750142 T1 Occ” value [5] was 8%. The “[^18F]AV-133 BPND T1” value [5] was 1.73, the “NBI-750142 T2 Occ” value [5] was −12% and the “[^18F]AV-133 BPND T2” value [5] was 2.09. For the same compound, the “Occupancy at T2 in striatum” value (Cohort 4 at 60 mg, subject 1, 18 h post dose) was −10%, the “Occupancy at T2 in striatum” value (Cohort 4 at 60 mg, subject 2, 18 h post dose) was −12% and the “Occupancy at T2 in striatum” value (Cohort 5A at 10 mg, subject 1, 18 h post dose) was −3%. For the same compound, the “Occupancy at T2 in striatum” value (Cohort 5A at 10 mg, subject 2, 18 h post dose) was −4%, the “NBI-750142 T1 Occ” value [6] was 26% and the “[^18F]AV-133 BPND T1” value [6] was 1.76. The “NBI-750142 T2 Occ” value [6] was −4%, the “[^18F]AV-133 BPND T2” value [6] was 2.48 and the “NBI-750142 T1 Occ” value [7] was 27%. The “[^18F]AV-133 BPND T1” value [7] was 1.14, the “NBI-750142 T2 Occ” value [7] was −2% and the “[^18F]AV-133 BPND T2” value [7] was 1.58. For the same compound, the “NBI-750142 T1 Occ” value [8] was 41%, the “[^18F]AV-133 BPND T1” value [8] was 0.31 and the “NBI-750142 T2 Occ” value [8] was 1%. The “[^18F]AV-133 BPND T2” value [8] was 0.52, the “NBI-750142 T1 Occ” value [9] was 9% and the “[^18F]AV-133 BPND T1” value [9] was 2.88. For the same compound, the “NBI-750142 T2 Occ” value [9] was −6%, the “[^18F]AV-133 BPND T2” value [9] was 3.34 and the “NBI-750142 T1 Occ” value [10] was 11%. The “[^18F]AV-133 BPND T1” value [10] was 1.98, the “NBI-750142 T2 Occ” value [10] was −3% and the “[^18F]AV-133 BPND T2” value [10] was 2.29. The “NBI-750142 T1 Occ” value [11] was 20%, the “[^18F]AV-133 BPND T1” value [11] was 0.43 and the “NBI-750142 T2 Occ” value [11] was −19%. The “[^18F]AV-133 BPND T2” value [11] was 0.65, the “Occupancy at T2 in striatum” value (Cohort 5B at 10 mg, subject 3, 18 h post dose) was −14% and the “Occupancy at T2 in striatum” value (Cohort 5B at 10 mg, subject 4, 18 h post dose) was 5%. The “NBI-750142 T1 Occ” value [12] was −2%, the “[^18F]AV-133 BPND T1” value [12] was 2.51 and the “NBI-750142 T2 Occ” value [12] was −14%. For the same compound, the “[^18F]AV-133 BPND T2” value [12] was 2.81, the “NBI-750142 T1 Occ” value [13] was 19% and the “[^18F]AV-133 BPND T1” value [13] was 0.40. The “NBI-750142 T2 Occ” value [13] was −14%, the “[^18F]AV-133 BPND T2” value [13] was 0.56 and the “NBI-750142 T1 Occ” value [14] was −2%. For the same compound, the “[^18F]AV-133 BPND T1” value [14] was 2.90, the “NBI-750142 T2 Occ” value [14] was −14% and the “[^18F]AV-133 BPND T2” value [14] was 3.25. The “NBI-750142 T1 Occ” value [15] was −4%, the “[^18F]AV-133 BPND T1” value [15] was 2.35 and the “NBI-750142 T2 Occ” value [15] was 4%. For the same compound, the “[^18F]AV-133 BPND T2” value [15] was 2.16, the “NBI-750142 T1 Occ” value [16] was 0% and the “[^18F]AV-133 BPND T1” value [16] was 0.52. For the same compound, the “NBI-750142 T2 Occ” value [16] was −2%, the “[^18F]AV-133 BPND T2” value [16] was 0.53 and the “NBI-750142 T1 Occ” value [17] was −3%. The “[^18F]AV-133 BPND T1” value [17] was 3.03, the “NBI-750142 T2 Occ” value [17] was 6% and the “[^18F]AV-133 BPND T2” value [17] was 2.75. The EC50 (Emax model, T1 occupancy values alone) was 0.0767 µM, the “EC50 (NBI-750142 plasma concentration vs VMAT2 striatal occupancy)” value (Emax model, both T1 and T2 occupancy values) was 0.0352 µg/mL (≈ 0.106 µM) and the “upregulation factor (URF)” value (Upregulation model, both T1 and T2 data) was 2.76. For the same compound, the “EC50 (NBI-750142 plasma concentration vs VMAT2 striatal occupancy)” value [18] was 0.0063 µg/mL (≈ 0.0189 µM), the EC50 [18] was 0.0195 µM and the “[^18F]AV-133 striatal uptake at T2” value (across all cohorts) was “appeared to return to, or slightly exceed, baseline levels”. For the same compound, the “Occupancy in the striatum at T1, lower end of range” value (average of caudate and putamen, 10 mg) was −4%, the “Occupancy in the striatum at T1, upper end of range” value [19] was 76% and the “Occupancy in the striatum at T2, upper end of range” value [19] was 14%. The “Occupancy in the striatum at T2, lower end of range” value (average of caudate and putamen, 200 mg) was −28%.
